Test results published in patent US20250339531A1, “DUX4 POLYPEPTIDES AND NUCLEIC ACIDS FOR TREATING INFLAMMATORY AND AUTOIMMUNE CONDITIONS” (Fred Hutchinson Cancer Center, priority 2021, published 2025).
Entries after “also recorded” stand apart in the source; their conditions may differ.

Key:
[1] = system: MHC-I, PSMB8, PSMB9, and PSMB10; assay: Immunoblot of IFNG-induced MHC-I and immunoproteasome protein in MB135 myoblasts treated with inhibitors; format: cell-based, human; details: MB135 myoblasts without DUX4 induction, agent then IFNG 16 h; 4EGI-1 at 50 uM
Procedure: To test if mTOR inactivation was sufficient to block MHC-I and immunoproteasome protein levels in the absence of DUX4, parental MB135 myoblasts were treated with mTOR inhibitors everolimus or Torin2. Everolimus is a second-generation rapamycin analog with binding specificity for mTORC1. […] To further validate the role of 4EBP1 in blocking MHC-I and immunoproteasome protein expression, MB135 cells were treated with 4EGI-1, a small molecule that pharmacologically mimics 4EBP function and inhibits eIF4E.
(§1) Protein samples were harvested in RIPA buffer [150 mM NaCl, 1% NP-40, 0.5% Na-deocycholate, 1% SDS, 25 mM Tris-HCl pH7.4] supplemented with protease and phosphatase inhibitor tablets (Pierce), followed by sonication in Diagenode Bioruptor. Lysate was cleared by centrifugation at 16000×g and quantified using a Pierce BCA assay (Thermo Fisher Scientific). Samples were run on NuPAGE precast polyacrylamide gels (Invitrogen) and transferred to PVDF membrane. Membranes were blocked in PBS containing 0.1% Tween-20 and 5% non-fat dry milk before overnight incubation at 4° C. with primary antibodies (see resource table for a list of antibodies used in this study). Membranes were incubated with horseradish peroxidase-conjugated secondary antibodies for 1 hour at room temperature and SuperSignal chemiluminescent substrate (Thermo Scientific) was used for detection on film with a Mini-medical 90 processor. Membranes were stripped with Restore Western Blot Stripping Buffer (Pierce).

[2] = system: HLA-A, HLA-B, HLA-C, PSMB8, PSMB9, PSMB10 mRNA; assay: mRNA levels of MHC-I and immunoproteasome genes (RT-PCR, RNA-seq); format: cell-based, human; details: MB135 cells, 50 uM, data not shown
Procedure: (§2) Myoblasts were transfected with either (final concentrations) 10 μM 2′,3′-cGAMP (Sigma Aldrich), 2 μg/mL poly(I:C) (Invitrogen), or 1 μg/mL 3′ppp-dsRNA RIG-I ligand (Dan Stetson Lab, UW) using Lipofectamine 2000 according to manufacturer's protocol, or were stimulated with 1000U IFNβ (PeproTech) or 200 ng/ml IFNγ (R+D Systems) by addition directly to cell culture medium. After 16 hours of immune stimulation, RNA was collected from cells using the NucleoSpin RNA Kit (Macherey-Nagel) according to manufacturer's instructions. RNA samples were quantified by nanodrop and 1 μg of RNA per sample was treated with DNase I Amplification Grade (Thermo Fisher), and then synthesized into cDNA using the Superscript IV First-Strand Synthesis System, including oligo dT primers (Invitrogen). qPCR was run in 384-well plates on an Applied Biosystems QuantStudio 6 Flex Real-Time PCR System (ABI) and analyzed in Microsoft Excel.
Total RNA was isolated using the NucleoSpin RNA kit (Machery-Nagel) or Direct-zol RNA Mini-Prep Kit (Zymo Research) according to manufacturer's instructions. RNA-seq libraries were prepared using the Illumina TruSeq RNA Sample Prep v2 Kit and sequenced using 50 bp paired-end sequencing on the Illumina NextSeq platform by the Fred Hutchinson Cancer Center Genomics Core.

ZSCAN4 = assay: Activation of DUX4 target gene ZSCAN4, RT-qPCR; format: cell-based, human; details: MB135 cells ± doxycycline
Procedure: (§3) All myoblast experiments were conducted in immortalized MB135 or MB200 myoblast cell lines (isolated from a control or FSHD2 subject, respectively cultured in Ham's F-10 Nutrient Mix (Gibco) supplemented with 15% fetal bovine serum (Hyclone), 100 U/100 μg/ml penicillin/streptomycin (Gibco), 1 μM dexamethasone (Sigma), and 10 ng/ml recombinant human basic fibroblast growth factor (PeproTech). To differentiate the myoblasts to myotubes, media was changed to DMEM supplemented with 10 μg/ml insulin (Sigma) and 10 μg/ml transferrin (Sigma). Cell lines containing doxycycline-inducible transgenes were additionally cultured with 2 μg/mL puromycin (Sigma). Transgenes were induced with 1 μg/mL of doxycycline (Sigma) for 4 hours prior to other treatments for a total of 20 hrs. The Kitra-SRS cells (RRID:CVCL_YI69) were provided by Dr. H. Otani and Osaka University (Nakai et al., 2019) and were cultured in DMEM supplemented with 10% fetal bovine serum (Hyclone) and 100 U/100 μg/ml penicillin/streptomycin (Gibco). Biological replicates consisted of independent but parallel experiments, such as simultaneously stimulating three cell culture plates with IFNγ. Technical replicates consisted of repeat measurements of the same biological sample, such as loading the same biological sample in triplicate for analysis by RT-qPCR.
as §2

[3] = system: interferon-stimulated genes IFIH1, ISG20, CXCL9, and CD74; assay: IFNG induction of interferon-stimulated genes, RT-qPCR in MB135 cells with doxycycline-inducible transgenes; format: cell-based, human; details: MB135 cells, doxycycline-induced transgene, continuous protocol, IFNG 16 h
Procedure: as §3, §2

[4] = system: eIF2-alpha, RPS6, 4EBP1, eIF4E, eEF2; assay: Immunoblot of translational regulators; format: cell-based, human; details: parental MB135 myoblasts treated with mTOR inhibitor
Procedure: as §1

[5] = system: proteins that co-immunoprecipitated with DUX4-CTD constructs expressed in MB135 myoblasts; assay: LC-MS of proteins co-immunoprecipitated with DUX4-CTD (Table 1) and western validation; format: binding, human; design: key to 4. mL1dL2 + Dox + IFNG / 4. + IFNG mix / 4. longCTD + Dox + IFNG / 3. + IFNg + Dox longCTD / 3. + Dox longCTD / 3. + IFNG longCTD: peptide-spectrum matches (PSMs) per protein
From the text: As an unbiased method to identify proteins that interact with the C-terminal region of DUX4, liquid chromatography mass spectroscopy (LC-MS) was used to identify proteins that co-immunoprecipitated with DUX4-CTD constructs expressed in MB135 myoblasts. In the first experiment, MB135iDUX4-CTD cells were used, either untreated, treated with doxycycline alone, or with both doxycycline and IFNG. In the second experiment, MB135iDUX4-CTD and MB135iDUX4mL1dL2 cells were used, both treated with doxycycline and IFNG, compared to these two cell lines untreated and combined as a control. Proteins with a minimum of 2 peptide spectrum matches (PSMs) in at least one sample that were identified in both experiments were assigned to one of ten categories (see Methods) to separate candidate interactors from other categories that might be co-purified because of obligate interactions (e.g., proteasome or ribosome) or might be less likely to be physiologically relevant (e.g., cytoskeletal proteins). Candidate interactors were then ranked based on the total PSMs for that protein across all samples.
Centrifugation at 2500 rcf at 4° C. for 5 min pelleted the nuclei, supernatant was discarded, and nuclei resuspended in 1 mL IP buffer pH 7.4 (25 mM Tris-HCl pH 7.5, 175 mM NaCl, 1 mM EDTA, 0.2% NP-40, 5% glycerol) and incubated for 1 hour at 4° C. with rotation then spun at 21000 rcf for 10 minutes at 4° C. to pellet insoluble debris. Protein concentration was determined using the Pierce BCA Protein Assay Kit (ThermoFisher, 23225). An equivalent amount of protein per sample was pre-cleared with Dynabeads Protein G (Invitrogen) bound to mouse IgG (Abcam #131368) for 1 hour at 4° C. with rotation. FLAG-tagged constructs were then immunoprecipitated with Dynabeads Protein G beads coupled to mouse anti-FLAG M2 mAb (Sigma F3165) for 3 hours at 4° C. with rotation. Beads were washed 3× with 1 mL IP buffer and eluted by adding 2× NuPage LDS Sample Buffer (Thermo Fisher, diluted from 4× with PBS) to the beads and heating for 10 minutes at 70° C.
For LC-MS, anti-FLAG immunoprecipitation was performed with beads cross-linked to the anti-FLAG antibody and the proteins competitively eluted with FLAG peptide. Eluted protein samples were electrophoresed into a NuPage 4-12% Bis-Tris gel, excised, and processed by the Fred Hutchinson Cancer Research Center Proteomics Core. Samples were reduced, alkylated, digested with trypsin, desalted, and run on the Orbitrap Eclipse Tribid Mass Spectrometer (Thermo Fisher). Proteomics data were analyzed using Proteome Discoverer 2.4 against a Uniprot human database that included common contaminants using Sequest HT and Percolator for scoring. […] Proteins that were identified in at least one sample from both independent experiments with at least 2 PSMs in one sample were assigned to one of ten categories: 1, candidates; 2, cytoskeletal associated; 3, cytoskeletal; 4, ribosome/translation associated; 5, proteasome associated; 6, membrane or extracellular; ER, golgi, or vesicle associated; 8, lipid metabolism; 9, chaperones; 10, nuclear import or nuclear membrane associated. The proteins in category 1 were further investigated for interactions with DUX4.

In the case of `O=C(O)C(Cc1ccccc1[N+](=O)[O-])=NNc1nc(-c2ccc(Cl)c(Cl)c2)cs1` (mixture of isomers) [4EGI-1], the “effect on IFNG-induced MHC-I and immunoproteasome protein in the absence of DUX4” value (“effect … of DUX4” below) [1] is reported as “suppressed IFNG-induced MHC-I and immunoproteasome subunits at the protein level; also recorded: suppressed IFN-induced MHC-I and iProteasome subunits at the protein level” and the “effect on mRNA levels of MHC-I and iProteasome subunits” value [2] is reported as “had no effect on mRNA levels”.
In the case of “iDUX4dL2: DUX4 transgene deleting the second (L)LxxL(L) motif, SEQ ID NO:100 (PCGLLLDELLASPEFLQQAQPLLETEAPGELEASEEAASLEAPLSEEYRA)”, the “transcriptional activation of DUX4 target gene ZSCAN4” value (ZSCAN4) is reported as “failed to activate the DUX4 target ZSCAN4” and the “suppression of IFNG induction of ISGs (IFIH1, ISG20, CXCL9, CD74)” value [3] is reported as “lost the ability to suppress the panel of ISGs”.
In the case of `Nc1ccc(-c2ccc3ncc4ccc(=O)n(-c5cccc(C(F)(F)F)c5)c4c3c2)cn1` [Torin2, reference compound], the “effect … of DUX4” value [1] is reported as “sufficient to post-transcriptionally repress IFNG-induced MHC-I, PSMB8, PSMB9, and PSMB10 protein expression”, the “phosphorylation of 4EBP1 and eIF4E” value [4] is reported as “complete hypophosphorylation of 4EBP1 and reduced eIF4E phosphorylation” and the “phosphorylation of RPS6” value [4] is reported as “blocked phosphorylation of RPS6”.
In the case of `COc1ccc(C[C@H](NC(=O)[C@H](C)NC(=O)CN2CCOCC2)C(=O)N[C@@H](Cc2ccccc2)C(=O)C2(C)CO2)cc1` (stereo in doubt) [ONX-0914], the “effect … of DUX4” value [1] is reported as “did not reduce IFNG-induced MHC-I levels”.
With “iDUX4mL1: DUX4 transgene mutating the first (L)LxxL(L) motif, SEQ ID NO: 99 (PCGLLAAEAAASPEFLQQAQPLLETEAPGELEASEEAASLEAPLSEEEYRALLEEL)” the “transcriptional activation of DUX4 target gene ZSCAN4” value (ZSCAN4) was “failed to activate the DUX4 target ZSCAN4” and the “suppression of IFNG induction of ISGs (IFIH1, ISG20, CXCL9, CD74)” value [3] was “partial activity, suppressing 3 of the 4 ISGs”.
With `CO[C@H]1C[C@@H]2CC[C@@H](C)[C@@](O)(O2)C(=O)C(=O)N2CCCC[C@H]2C(=O)O[C@H]([C@H](C)C[C@@H]2CC[C@@H](OCCO)[C@H](OC)C2)CC(=O)[C@H](C)/C=C(\C)[C@@H](O)[C@@H](OC)C(=O)[C@H](C)C[C@H](C)/C=C/C=C/C=C/1C` [everolimus, reference compound] the “effect … of DUX4” value [1] was “did not block MHC-I or immunoproteasome protein expression”, the “phosphorylation of 4EBP1 and eIF4E” value [4] was 4EBP1 phosphorylation and eIF4E phosphorylation remained largely unaltered and the “phosphorylation of RPS6” value [4] was “blocked S6K phosphorylation of RPS6”.
In the case of `CC(C)C[C@H](NC(=O)[C@H](CCc1ccccc1)NC(=O)CN1CCOCC1)C(=O)N[C@@H](Cc1ccccc1)C(=O)N[C@@H](CC(C)C)C(=O)[C@@]1(C)CO1` [Carfilzomib], the “effect … of DUX4” value [1] is reported as “abrogated the accumulation of MHC-I following IFNG treatment”.
With P11142 the “4. longCTD + Dox + IFNG” value ([5]; LC-MS counts of the listed protein co-immunoprecipitated with DUX4-CTD bait longCTD, experiment 4, Dox + IFNG) was 105, the “4. mL1dL2 + Dox + IFNG” value ([5]; LC-MS counts of the listed protein co-immunoprecipitated with DUX4-CTD bait mL1dL2, experiment 4, Dox + IFNG) was 90 and the “4. + IFNG mix” value ([5]; LC-MS counts of the listed protein in anti-FLAG co-IP, experiment 4, IFNG, no doxycycline, mix, MB135 myoblasts) was 21. The “3. + Dox longCTD” value ([5]; bait longCTD, experiment 3, Dox only) was 27, the “3. + IFNG longCTD” value ([5]; bait longCTD, experiment 3, IFNG only, no doxycycline (bait at background level)) was 2 and the “3. + IFNg + Dox longCTD” value ([5]; bait longCTD, experiment 3, IFNg + Dox) was 54. The “SUM of PSMS” value ([5]; sum over all samples) was 299.
